{"source": "PubChem BioAssay AID493058", "about": "(The Scripps Research Institute Molecular Screening Center, 2011)", "note": "Activity calls are given as the source filed them.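 How the source made its calls: active means EC50 of 10 µM or lower; inactive means EC50 above 10 µM.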", "data": [{"test_system": "DHL10 Bax/Bak-deficient cells, cytotoxicity, MTS absorbance", "test": "cytotoxicity in Bax/Bak-deficient DHL10 cells, late-stage follow-up, counter-screen for MCL1-BIM inhibitor project, cell-based, MTS absorbance, EC50 (AID 493058)", "values": [{"smiles": "COc1ccc(Cc2nnc(NC(=O)c3cc(-c4ccco4)nc4ccccc34)s2)cc1OC", "EC50": "> 25 µM (inactive)"}, {"smiles": "NS(=O)(=O)c1ccc(CCNC(=O)c2cc(-c3ccco3)nc3ccccc23)cc1", "EC50": "> 25 µM (inactive)"}, {"smiles": "CCc1nnc(NC(=O)c2cc(-c3ccc(C)o3)nc3ccccc23)s1", "EC50": "> 25 µM (inactive)"}, {"smiles": "CCOC(=O)C1CCCN(C(=O)c2cc(-c3ccco3)nc3ccccc23)C1", "note": "(stereo unspecified)", "EC50": "> 25 µM (inactive)"}, {"smiles": "COc1ccc(NC(=O)c2cc(-c3ccc(C)o3)nc3ccccc23)c(OC)c1", "EC50": "> 25 µM (inactive)"}, {"smiles": "CCN1CCN(C(=O)c2cc(-c3ccco3)nc3ccccc23)CC1", "EC50": "> 25 µM (inactive)"}, {"smiles": "COc1ccc(Cc2nnc(NC(=O)Cc3sc(=S)[nH]c3C)s2)cc1OC", "EC50": "> 25 µM (inactive)"}, {"smiles": "Cc1ccc(-c2cc(C(=O)NCC(c3ccccc3)N(C)C)c3ccccc3n2)o1", "note": "(stereo unspecified)", "EC50": "> 25 µM (inactive)"}, {"smiles": "COCCN(C(=O)c1cc(-c2ccco2)nc2ccccc12)c1c(N)n(Cc2ccccc2)c(=O)[nH]c1=O", "EC50": "> 25 µM (inactive)"}, {"smiles": "CCCCCCNC(=O)c1cc(-c2ccco2)nc2ccccc12", "EC50": "> 25 µM (inactive)"}, {"smiles": "COc1ccc(Cc2nnc(NC(=O)Cc3ccc4ccccc4c3)s2)cc1OC", "EC50": "> 25 µM (inactive)"}, {"smiles": "Cc1ccc(-c2cc(C(=O)NCCN3CCOCC3)c3ccccc3n2)o1", "EC50": "> 25 µM (inactive)"}, {"smiles": "CCN(CC)C(=O)COc1ccc2c(-c3ccccc3)cc(=O)oc2c1", "EC50": "> 25 µM (inactive)"}, {"smiles": "COc1ccc(Cc2nnc(NC(=O)Cc3ccsc3)s2)cc1OC", "EC50": "> 25 µM (inactive)"}, {"smiles": "O=C(Nc1nc2ccccc2s1)c1cc(-c2ccco2)nc2ccccc12", "EC50": "> 25 µM (inactive)"}, {"smiles": "Cc1ccc(-c2cc(C(=O)Nc3ccccn3)c3ccccc3n2)o1", "EC50": "> 25 µM (inactive)"}, {"smiles": "Cc1ccc(-c2cc(C(=O)Nc3cccc(S(=O)(=O)N(C)C)c3)c3ccccc3n2)o1", "EC50": "> 25 µM (inactive)"}, {"smiles": "CC1CCCN(C(=O)c2cc(-c3ccco3)nc3ccccc23)C1", "note": "(stereo unspecified)", "EC50": "> 25 µM (inactive)"}, {"smiles": "COCCCN(C(=O)c1cc(-c2ccco2)nc2ccccc12)c1c(N)n(Cc2ccccc2)c(=O)[nH]c1=O", "EC50": "> 25 µM (inactive)"}, {"smiles": "COc1ccc(Cc2nnc(NC(=O)Cc3csc4ccccc34)s2)cc1OC", "EC50": "> 25 µM (inactive)"}, {"smiles": "COc1ccc(Cc2nnc(NC(=O)CCc3ccco3)s2)cc1OC", "EC50": "> 25 µM (inactive)"}, {"smiles": "Cc1cccc(NC(=O)c2cc(-c3ccc(C)o3)nc3ccccc23)n1", "EC50": "> 25 µM (inactive)"}, {"smiles": "CCCCn1c(N)c(N(CCC(C)C)C(=O)c2cc(-c3ccco3)nc3ccccc23)c(=O)[nH]c1=O", "EC50": "> 25 µM (inactive)"}, {"smiles": "CCCC(=O)Nc1nnc(Cc2ccccc2)s1", "EC50": "> 25 µM (inactive)"}, {"smiles": "CCN(CC)CCNC(=O)c1cc(-c2ccco2)nc2ccccc12", "EC50": "> 25 µM (inactive)"}, {"smiles": "O=C(NCCCN1CCOCC1)c1cc(-c2ccco2)nc2ccccc12", "EC50": "> 25 µM (inactive)"}, {"smiles": "COc1ccccc1CC(=O)Nc1nnc(Cc2ccc(OC)c(OC)c2)s1", "EC50": "> 25 µM (inactive)"}, {"smiles": "Cc1ccc(NC(=O)c2cc(-c3ccco3)nc3ccccc23)cc1S(=O)(=O)N1CCOCC1", "EC50": "> 25 µM (inactive)"}, {"smiles": "COc1ccc(NC(=O)c2cc(-c3ccco3)nc3ccccc23)cc1S(=O)(=O)N1CCOCC1", "EC50": "> 25 µM (inactive)"}, {"smiles": "CN(CCOc1ccccc1)C(=O)c1cc(-c2ccco2)nc2ccccc12", "EC50": "> 25 µM (inactive)"}, {"smiles": "CN(C)C(=O)c1ccc(NC(=O)c2cc(-c3ccco3)nc3ccccc23)cc1", "EC50": "> 25 µM (inactive)"}, {"smiles": "Cc1nnc(NC(=O)c2cc(-c3ccco3)nc3ccccc23)s1", "EC50": "> 25 µM (inactive)"}, {"smiles": "CC(=O)N1CCN(C(=O)c2cc(-c3ccc(C)o3)nc3ccccc23)CC1", "EC50": "> 25 µM (inactive)"}, {"smiles": "COc1cccc(NC(=O)c2cc(-c3ccco3)nc3ccccc23)c1", "EC50": "> 25 µM (inactive)"}, {"smiles": "CCCCn1c(N)c(N(CC(C)C)C(=O)c2cc(-c3ccco3)nc3ccccc23)c(=O)[nH]c1=O", "EC50": "> 25 µM (inactive)"}, {"smiles": "COc1ccc(Cc2nnc(NC(=O)C3(c4ccccc4)CC3)s2)cc1OC", "EC50": "> 25 µM (inactive)"}]}]}
